The values below come from article PMC9376946, “Peptide-RNA Coacervates as a Cradle for the Evolution of Folded Domains” (Journal of the American Chemical Society, 2022).

The experiment relates to polyU. The experiment is described as follows: W-band echo intensity and echo decay of PA-12 with polyU. Format: binding. As for the experimental part: For pulse EPR measurements, 5–6 μL of peptide in D2O with 20% glycerol-d8 was introduced into a quartz capillary of 0.9 mm i.d. and 1.1 mm o.d. and sealed with Critoseal at one end. The samples with polyU (and thus, the potential for coacervates) were flash-frozen in liquid nitrogen after incubating at room temperature for 15–20 min. Samples without polyU were directly inserted into the spectrometer at 25 K.
Pulse EPR measurements were carried out at the W band (94.9 GHz) on a home-built spectrometer at 25 K.[22]−[24] Echo intensities were measured with a Hahn echo sequence (π/2νobs – τ – πνobs – τ – echo) using π/2 and π pulses of 20–25 ns and 40–50 ns, respectively, and τ = 500 ns. Echo decays were measured under the same conditions with an initial τ value of 500 ns. DEER measurements were recorded using the four-pulse DEER sequence (π/2νobs – τ1 – πνobs – (τ1 + t) – πνpump – (τ2-t) – πνobs – τ2 – echo)[25],[26] with a chirp pump pulse[23] using eight-step phase cycling and monitoring the echo intensity as a function of increasing t. […] The DEER data were analyzed using the DeerAnalysis 2018[27] program with Tikhonov regularization[28] and also verified with DEERNet.[29] […] The calculated distance distributions were obtained from mtsslSuite[30] using maleimide TEMPO (M-TEMPO) as the ligand, and 200 rotamer conformations were generated using clash treatment set to “loose”. […]

In the case of “RIRRASVEELTCVPGIGPRLARRILERLA [PA-12, Precursor-Arg peptide in which position 12 has been modified with a cysteine and attached to an M-TEMPO spin label]”, the echo signal remaining (150 μM PA-12, 0.5 mg/mL polyU (plateau), relative to no polyU) came out at 8%. Also, under “1 mg/mL polyU, 80% spin dilution, final PA 150 μM”, the fast-decaying echo component result is on record as “the fast-decaying component became clearly visible”.
